In US20240059677A1, “SUBSTITUTED PYRIMIDINE DERIVATIVES AS NICOTINIC ACETYLCHOLINESTERASE RECEPTOR ALPHA 6 MODULATOR” (priority 2020, published 2024):

Target: T1, human nAChRα6-α3 chimera, in addition to β2 and β3^V273S subunits (Homo sapiens, UniProt P32297+Q15825)
T1 construct: expressed in transfected cells
Assay: fluorescence-based calcium assay: inhibition of nicotine stimulated nAChRα6 activity (FLIPR)
Conditions: HEK cell line stably expressing the receptor; 10 min pre-incubation, nicotine EC80; 10-point curve, duplicate wells; read-out: IC50
Description: The ability of the test compounds to inhibit nicotine stimulated nAChRα6 activity was determined in a fluorescence-based calcium assay. Compound activity was determined using a HEK cell line stably expressing a human nAChRα6-α3 chimera, in addition to β2 and β3^V273S subunits (as in Capelli et al, Br J Pharmacol 163(2): 313-29 2011). In this cell line, nicotine stimulated an increase in intracellular calcium concentration, measured as an increase in fluorescence when cells were incubated with a calcium sensitive dye. Test compounds were pre-incubated with cells prior to nicotine stimulation to detect any reduction in the magnitude of the nicotine response.
The day prior to the assay, compounds were serially diluted in DMSO (200× final assay concentration (FAC)), in 384-well plates which were then stored in the dark at room temperature (RT) until use. Cells were seeded at 20 k/well in black, poly-D-lysine coated, clear bottom 384-well plates and incubated for 4 hours at 37° C., followed by overnight incubation at 30° C. The following day, the DMSO compound plate was diluted 1:20 (10×FAC) in assay buffer (HEPES buffered saline solution with 10 mM HEPES, 0.1% bovine serum albumin, 1 mM probenecid). A nicotine solution was prepared in assay buffer (7×FAC) and dispensed into a 384-well plate. The growth media was removed from the cell plate, replaced with 53 μl calcium dye/well (Calcium 5; Molecular Devices) and the plate incubated at 30° C. for 45 minutes. Test compounds were then added to the cells (7 μl of 10×FAC) and incubated for 10 minutes, after which nicotine EC80 (10 μl of 7×FAC) was added and changes in fluorescence measured using a FLIPR plate reader (Molecular Devices).
Compound activity was examined using a 10-point, half-log concentration-response range and each concentration was tested in duplicate wells.

T1 sequence (Q05901 25-458 V273S): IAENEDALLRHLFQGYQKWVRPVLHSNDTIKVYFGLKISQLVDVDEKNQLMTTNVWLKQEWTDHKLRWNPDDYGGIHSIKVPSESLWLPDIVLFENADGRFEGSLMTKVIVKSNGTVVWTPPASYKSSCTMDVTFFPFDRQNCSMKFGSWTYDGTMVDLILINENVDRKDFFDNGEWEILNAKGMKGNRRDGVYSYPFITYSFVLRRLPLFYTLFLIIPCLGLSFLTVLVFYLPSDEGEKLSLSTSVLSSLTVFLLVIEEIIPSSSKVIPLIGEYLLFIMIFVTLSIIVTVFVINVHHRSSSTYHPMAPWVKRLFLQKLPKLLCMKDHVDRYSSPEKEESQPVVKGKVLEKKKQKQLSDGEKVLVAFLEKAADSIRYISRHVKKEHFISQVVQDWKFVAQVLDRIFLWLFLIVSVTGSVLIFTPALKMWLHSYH
T1 sequence (P17787 26-502, stated change not applied, further chain): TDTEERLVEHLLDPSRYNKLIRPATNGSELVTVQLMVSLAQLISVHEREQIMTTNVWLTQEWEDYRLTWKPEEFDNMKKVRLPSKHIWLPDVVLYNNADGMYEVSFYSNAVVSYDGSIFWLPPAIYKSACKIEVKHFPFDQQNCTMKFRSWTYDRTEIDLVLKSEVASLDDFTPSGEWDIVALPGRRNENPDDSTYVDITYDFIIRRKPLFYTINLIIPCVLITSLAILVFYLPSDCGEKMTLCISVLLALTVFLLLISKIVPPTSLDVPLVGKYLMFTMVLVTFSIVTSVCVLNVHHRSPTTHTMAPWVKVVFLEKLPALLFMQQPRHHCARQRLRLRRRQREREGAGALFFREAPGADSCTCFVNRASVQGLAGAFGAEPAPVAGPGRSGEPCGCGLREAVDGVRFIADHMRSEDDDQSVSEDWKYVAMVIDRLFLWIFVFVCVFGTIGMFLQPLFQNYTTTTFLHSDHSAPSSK
T1 sequence (Q15825+P32297 fused with the stated changes): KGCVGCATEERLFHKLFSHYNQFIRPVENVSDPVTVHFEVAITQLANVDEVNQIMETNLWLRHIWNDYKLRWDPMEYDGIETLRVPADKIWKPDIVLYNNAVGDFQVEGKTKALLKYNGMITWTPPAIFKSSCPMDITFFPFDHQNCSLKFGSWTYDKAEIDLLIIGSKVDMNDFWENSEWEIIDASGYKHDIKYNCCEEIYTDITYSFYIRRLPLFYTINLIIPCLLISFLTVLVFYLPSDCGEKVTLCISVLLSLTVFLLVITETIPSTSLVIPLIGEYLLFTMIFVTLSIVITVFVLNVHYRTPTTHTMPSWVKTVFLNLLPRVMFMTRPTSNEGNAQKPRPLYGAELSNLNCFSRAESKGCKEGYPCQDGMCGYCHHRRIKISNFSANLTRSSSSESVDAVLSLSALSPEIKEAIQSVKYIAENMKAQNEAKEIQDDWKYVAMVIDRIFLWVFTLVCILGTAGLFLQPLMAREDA

SMILES	IC50
COc1ccc(-c2nnc(NCC3CCCCN3C)nc2C)c(F)c1 (single isomer, unassigned) [Example 57a, 6-(2-fluoro-4-methoxyphenyl)-5-methyl-N-((1-methylpiperidin-2-yl)methyl)-1,2,4-triazin-3-amine]	139 nM
COc1ccc(-c2nnc(NCCC3CCCN3C)nc2C)c(F)c1 (stereo not drawn) [Example 23, 6-(2-fluoro-4-methoxyphenyl)-5-methyl-N-(2-(1-methylpyrrolidin-2-yl)ethyl)-1,2,4-triazin-3-amine]	233 nM
CN(C)C1CCC(Nc2ncc(-c3ccc(F)cc3F)c(C#N)n2)C1 (single isomer, unassigned) [Example 58a, 5-(2,4-difluorophenyl)-2-((3-(dimethylamino)cyclopentyl)amino) pyrimidine-4-carbonitrile]	38 nM
COc1ccc(-c2cnc(NCC3CCN(C)C3)nc2C2CC2)c(F)c1 (stereo not drawn) [Example 37, 4-cyclopropyl-5-(2-fluoro-4-methoxyphenyl)-N-((1-methylpyrrolidin-3-yl)methyl)pyrimidin-2-amine]	103 nM
Cc1nc(NC2CCN(C)CC2)ncc1-c1ccc(F)cc1F [Example 71, 5-(2,4-difluorophenyl)-4-methyl-N-(1-methylpiperidin-4-yl)pyrimidin-2-amine]	54 nM
COc1ccc(-c2cnc(NC3CCC(N(C)C)C3)nc2C#N)c(F)c1 (single isomer, unassigned) [Example 38a, 2-((3-(dimethylamino)cyclopentyl)amino)-5-(2-fluoro-4-methoxyphenyl) pyrimidine-4-carbonitrile]	59 nM
Cc1nc(NC[C@@H]2CCCN2C)ncc1-c1ccc(F)cc1F [Example 24a, (S)-5-(2,4-difluorophenyl)-4-methyl-N-((1-methylpyrrolidin-2-yl)methyl) pyrimidin-2-amine]	62 nM
Cc1nc(NC2CC3CCC(C2)N3C)ncc1-c1ccc(F)cc1F (stereo not drawn) [Example 12, N-(5-(2,4-difluorophenyl)-4-methyl-pyrimidin-2-yl)-8-methyl-8-azabicyclo[3.2.1]octan-3-amine]	108 nM
Cc1nc(NC[C@H]2CCCN2)ncc1-c1ccc(C(F)(F)F)cc1F [Example 102, (R)-5-(2-fluoro-4-(trifluoromethyl)phenyl)-4-methyl-N-(pyrrolidin-2-ylmethyl)pyrimidin-2-amine]	5 nM
Cc1nc(N[C@H]2C[C@H]3CC[C@@H](C2)N3)ncc1-c1ccc(C(F)(F)F)cc1F [Example 121, (1R,3s,5S)—N-(5-(2-fluoro-4-(trifluoromethyl)phenyl)-4-methyl-pyrimidin-2-yl)-8-azabicyclo[3.2.1]octan-3-amine]	191 nM
Cc1nc(NCCC2CCCN2C)ncc1-c1ccc(F)cc1F (stereo not drawn) [Example 14, 5-(2,4-difluorophenyl)-4-methyl-N-(2-(1-methylpyrrolidin-2-yl)ethyl) pyrimidin-2-amine]	42 nM
COc1ccc(-c2nnc(NCC3CCCCN3C)nc2C)c(F)c1 (stereo not drawn) [Example 26, 6-(2-fluoro-4-methoxyphenyl)-5-methyl-N-((1-methylpiperidin-2-yl)methyl)-1,2,4-triazin-3-amine]	156 nM
Cc1nc(NC2CCC(S(C)(=O)=O)C2)ncc1-c1ccc(F)cc1F (stereo not drawn) [Example 52, 5-(2,4-difluorophenyl)-4-methyl-N-(3-(methylsulfonyl)cyclopentyl) pyrimidin-2-amine]	1530 nM
Cc1nc(NC(C)[C@@H]2CCCN2C)ncc1-c1ccc(C(F)(F)F)cc1F (single isomer, unassigned) [Example 132a, 5-(2-fluoro-4-(trifluoromethyl)phenyl)-4-methyl-N-((1*R)-1-((2S)-1-methylpyrrolidin-2-yl)ethyl)pyrimidin-2-amine]	92 nM
O=C(O)/C=C/C(=O)O.[2H]C([2H])([2H])N1CCC[C@H]1CNc1ncc(-c2ccc(C(F)(F)F)cc2F)c(C)n1 [Example 118, (S)-5-(2-fluoro-4-(trifluoromethyl)phenyl)-4-methyl-N-((1-(trideuteriomethyl)pyrrolidin-2-yl)methyl)pyrimidin-2-amine]	75 nM
Cc1nc(NCC2COCCN2C)ncc1-c1ccc(F)cc1F (single isomer, unassigned) [Example 79a, 5-(2,4-difluorophenyl)-4-methyl-N-((4-methylmorpholin-3-yl)methyl) pyrimidin-2-amine]	420 nM
COc1ccc(-c2nnc(NC3CCCN(C)C3)nc2C)c(F)c1 (single isomer, unassigned) [Example 69b, 6-(2-fluoro-4-methoxyphenyl)-5-methyl-N-(1-methylpiperidin-3-yl)-1,2,4-triazin-3-amine]	309 nM

SMILES	IC50
Cc1nc(N[C@H]2CNC[C@@H]2F)ncc1-c1ccc(C(F)(F)F)cc1F (relative stereo) [Example 114, N-((trans)-4-fluoropyrrolidin-3-yl)-5-(2-fluoro-4-(trifluoromethyl)phenyl)-4-methyl-pyrimidin-2-amine]	142 nM
Cc1nc(NC[C@@H]2CCCNC2)ncc1-c1ccc(C(F)(F)F)cc1F [Example 113, (R)-5-(2-fluoro-4-(trifluoromethyl)phenyl)-4-methyl-N-((3-piperidinyl)methyl)pyrimidin-2-amine]	45 nM
Cc1nc(NCCC2CCCN2C)ncc1-c1ccc(C(F)(F)F)cc1F (stereo not drawn) [Example 106, 5-(2-fluoro-4-(trifluoromethyl)phenyl)-4-methyl-N-(2-(1-methylpyrrolidin-2-yl)ethyl)pyrimidin-2-amine]	54 nM
Cc1nc(NCC2COCCN2C)ncc1-c1ccc(F)cc1F (single isomer, unassigned) [Example 79b, 5-(2,4-difluorophenyl)-4-methyl-N-((4-methylmorpholin-3-yl)methyl) pyrimidin-2-amine]	296 nM
COc1ccc(-c2cnc(NC3CCC(N(C)C)C3)nc2C)c(F)c1 (single isomer, unassigned) [Example 44a, N^1-(5-(2-fluoro-4-methoxyphenyl)-4-methyl-pyrimidin-2-yl)-N^3,N^3-dimethylcyclopentane-1,3-diamine]	76 nM
Cc1nc(NC[C@H]2CCCN2CC(F)(F)F)ncc1-c1ccc(F)cc1F [Example 95a, (R)-5-(2,4-difluorophenyl)-4-methyl-N-((1-(2,2,2-trifluoroethyl)pyrrolidin-2-yl)methyl)pyrimidin-2-amine]	48 nM
COc1ccc(-c2c(C)nc(NCC3CCCN3C)nc2OC)c(F)c1 (stereo not drawn) [Example 75, 5-(2-fluoro-4-methoxyphenyl)-4-methoxy-6-methyl-N-((1-methylpyrrolidin-2-yl)methyl)pyrimidin-2-amine]	94 nM
CN1CCC(Nc2ncc(-c3ccc(F)cc3F)c(C#N)n2)CC1 [Example 66, 5-(2,4-difluorophenyl)-2-((1-methylpiperidin-4-yl)amino)pyrimidine-4-carbonitrile]	94 nM
Cc1nc(NCC2CCN(C)C2)ncc1-c1ccc(F)cc1F (stereo not drawn) [Example 13, 5-(2,4-difluorophenyl)-4-methyl-N-((1-methylpyrrolidin-3-yl)methyl) pyrimidin-2-amine]	50 nM
O=C(O)/C=C/C(=O)O.[2H]C([2H])([2H])N1CCC[C@@H]1CNc1ncc(-c2ccc(C(F)(F)F)cc2F)c(C)n1 [Example 117, (R)-5-(2-fluoro-4-(trifluoromethyl)phenyl)-4-methyl-N-((1-(trideuteriomethyl)pyrrolidin-2-yl)methyl)pyrimidin-2-amine]	25 nM
Cc1nc(NC2CCN(C(C)C)CC2)ncc1-c1ccc(F)cc1F [Example 67, 5-(2,4-difluorophenyl)-N-(1-isopropylpiperidin-4-yl)-4-methyl-pyrimidin-2-amine]	66 nM
Cc1nc(N[C@@H]2CNC[C@@H]2F)ncc1-c1ccc(C(F)(F)F)cc1F (relative stereo) [Example 112, N-((cis)-4-fluoropyrrolidin-3-yl)-5-(2-fluoro-4-(trifluoromethyl)phenyl)-4-methyl-pyrimidin-2-amine]	107 nM
CN1CCCCC1CNc1ncc(-c2ccc(F)cc2)cn1 (stereo not drawn) [Example 8, 5-(4-fluorophenyl)-N-((1-methylpiperidin-2-yl)methyl)pyrimidin-2-amine]	286 nM
CN1CCCC1CCNc1ncc(-c2ccc(F)cc2)cn1 (stereo not drawn) [Example 3, 5-(4-fluorophenyl)-N-(2-(1-methylpyrrolidin-2-yl)ethyl)pyrimidin-2-amine]	331 nM
Cc1nc(NC2CC(N(C)C)C2)ncc1-c1ccc(F)cc1F (single isomer, unassigned) [Example 68a, N^1-(5-(2,4-difluorophenyl)-4-methyl-pyrimidin-2-yl)-N^3,N^3-dimethylcyclobutane-1,3-diamine]	78 nM
Cc1nc(NCC2C(F)CCN2C)ncc1-c1ccc(F)cc1F (single isomer, unassigned) [Example 96b, 5-(2,4-difluorophenyl)-N-((3-fluoro-1-methylpyrrolidin-2-yl)methyl)-4-methyl-pyrimidin-2-amine]	99 nM
